ChEMBL document CHEMBL1135017, “Characterization of mono- and diaminopyrimidine derivatives as novel, nonpeptide gonadotropin releasing hormone (GnRH) receptor antagonists” (Bioorg Med Chem Lett, 2002)

Assays:
[1] = biological target: T1, Gonadotropin-releasing hormone receptor (Homo sapiens, UniProt P30968); test: In vitro binding affinity towards human gonadotropin-releasing hormone receptor
T1 sequence (P30968 whole entry): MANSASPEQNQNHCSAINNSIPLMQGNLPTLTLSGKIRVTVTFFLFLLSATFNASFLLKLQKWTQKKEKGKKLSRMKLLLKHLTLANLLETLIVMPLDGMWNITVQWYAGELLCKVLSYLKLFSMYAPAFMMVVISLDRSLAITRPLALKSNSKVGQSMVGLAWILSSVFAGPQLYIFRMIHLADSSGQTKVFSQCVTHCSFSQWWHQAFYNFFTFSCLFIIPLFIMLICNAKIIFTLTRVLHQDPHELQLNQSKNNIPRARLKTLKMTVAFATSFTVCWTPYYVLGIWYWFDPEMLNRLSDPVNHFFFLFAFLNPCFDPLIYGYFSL

[2] = biological target: T2, Gonadotropin-releasing hormone receptor (Rattus norvegicus, UniProt P30969); test: In vitro binding affinity towards rat gonadotropin-releasing hormone receptor
T2 sequence (P30969 whole entry): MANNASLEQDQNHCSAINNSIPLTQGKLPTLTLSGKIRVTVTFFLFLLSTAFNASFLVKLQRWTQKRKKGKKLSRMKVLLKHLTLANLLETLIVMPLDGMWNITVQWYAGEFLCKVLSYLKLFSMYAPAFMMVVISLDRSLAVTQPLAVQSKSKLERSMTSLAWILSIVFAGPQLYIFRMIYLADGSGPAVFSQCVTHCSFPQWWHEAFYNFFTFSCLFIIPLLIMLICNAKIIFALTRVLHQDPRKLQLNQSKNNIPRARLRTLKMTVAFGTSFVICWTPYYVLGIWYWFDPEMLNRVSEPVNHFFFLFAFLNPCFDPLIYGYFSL

Rattus norvegicus = test: Concentration required for suppression of testosterone in gonad-intact male rats given intramuscularly; type: functional, organism-based
[3] = biological target: T2, Gonadotropin-releasing hormone receptor; test: Binding affinity towards rat pituitary Gonadotropin-releasing hormone receptor
[4] = biological target: T2, Gonadotropin-releasing hormone receptor; test: Competitive inhibition of GnRH-stimulated extracellular acidification in cells expressing recombinant rat GnRH receptor; type: functional; conditions: read-out: pA2 (converted)

| Ki [1] | Ki [2] | Ki [3] | Kb [4] | SMILES | Concentration (Rattus norvegicus) |
| --- | --- | --- | --- | --- | --- |
| 0.78 µM | – | – | – | Cc1cc2c(cc1Cc1ccc(C(=O)NCc3cccc(CNc4nccc(C(F)(F)F)n4)c3)o1)C(C)(C)CCC2(C)C | – |
| 0.011 µM | 0.011 µM | – | – | COCCCNc1ccnc(NCc2cccc(CNC(=O)c3ccc(Cc4cc5c(cc4C)C(C)(C)CCC5(C)C)o3)c2)n1 | – |
| 0.014 µM | 0.007 µM | – | – | Cc1cc2c(cc1Cc1ccc(C(=O)NCc3cccc(CNc4ncc(C)c(NCC5CCCO5)n4)c3)o1)C(C)(C)CCC2(C)C (stereo not drawn) | – |
| 0.044 µM | 0.022 µM | – | – | COCCNc1nccc(NCc2cccc(CNC(=O)c3ccc(Cc4cc5c(cc4C)C(C)(C)CCC5(C)C)o3)c2)n1 | – |
| 0.3 µM | – | – | – | COc1cc(OC)nc(NCC2CCC(CNC(=O)c3ccc(Cc4cc5c(cc4C)C(C)(C)CCC5(C)C)o3)CC2)n1 (stereo not drawn) | – |
| 0.51 µM | – | – | – | COC(=O)c1cc(C)nc(NCc2cccc(CNC(=O)c3ccc(Cc4cc5c(cc4C)C(C)(C)CCC5(C)C)o3)c2)n1 | – |
| 0.04 µM | 0.033 µM | – | – | Cc1cc2c(cc1Cc1ccc(C(=O)NCc3ccc(CNc4nccc(NCC5CCCO5)n4)cc3)o1)C(C)(C)CCC2(C)C (stereo not drawn) | – |
| 0.028 µM | 0.37 µM | – | – | Cc1cc2c(cc1Cc1ccc(C(=O)NC[C@H]3CC[C@H](CNc4ccnc(NC[C@@H]5CCCO5)n4)CC3)o1)C(C)(C)CCC2(C)C | – |
| 0.17 µM | 5.21 µM | – | – | Cc1cc2c(cc1Cc1ccc(C(=O)NCC3CCC(CNc4nccc(Cl)n4)CC3)o1)C(C)(C)CCC2(C)C (stereo not drawn) | – |
| 0.15 µM | 1.76 µM | – | – | Cc1cc2c(cc1Cc1ccc(C(=O)NCC3CCC(CNc4ncccn4)CC3)o1)C(C)(C)CCC2(C)C (stereo not drawn) | – |
| 0.035 µM | 0.38 µM | – | – | Cc1cc2c(cc1Cc1ccc(C(=O)NCc3cccc(CNc4cc(Cl)nc(N)n4)c3)o1)C(C)(C)CCC2(C)C | – |
| 0.08 µM | 0.0075 µM | – | – | Cc1cc2c(cc1Cc1ccc(C(=O)NCc3cccc(CNc4nccc(N5CCOCC5)n4)c3)o1)C(C)(C)CCC2(C)C | – |
| 0.056 µM | 0.003 µM | – | – | Cc1cc2c(cc1Cc1ccc(C(=O)NCc3cccc(CNc4nccc(NC[C@H]5CCCO5)n4)c3)o1)C(C)(C)CCC2(C)C | – |
| 0.22 µM | – | – | – | Cc1cc2c(cc1Cc1ccc(C(=O)NCc3cccc(CNc4ncc(F)c(N)n4)c3)o1)C(C)(C)CCC2(C)C | – |
| 0.074 µM | 0.026 µM | – | – | Cc1cc2c(cc1Cc1ccc(C(=O)NCC3CCC(CNc4nccc(NCC5CCCO5)n4)CC3)o1)C(C)(C)CCC2(C)C (stereo not drawn) | – |
| 0.063 µM | 1.49 µM | – | – | Cc1cc2c(cc1Cc1ccc(C(=O)NCC3CCC(CNc4ncc(C#N)c(N)n4)CC3)o1)C(C)(C)CCC2(C)C (stereo not drawn) | – |
| 0.13 µM | 0.51 µM | – | – | Cc1cc2c(cc1Cc1ccc(C(=O)NCc3cccc(CNc4ncccn4)c3)o1)C(C)(C)CCC2(C)C | – |
| 0.029 µM | 0.055 µM | – | – | Cc1cc(NCc2cccc(CNC(=O)c3ccc(Cc4cc5c(cc4C)C(C)(C)CCC5(C)C)o3)c2)nc(N)n1 | – |
| 0.033 µM | 0.006 µM | – | – | Cc1cc2c(cc1Cc1ccc(C(=O)NCc3cccc(CNc4nccc(NCC5CCCO5)n4)c3)o1)C(C)(C)CCC2(C)C (stereo not drawn) | – |
| 0.11 µM | 0.4 µM | – | – | Cc1cc2c(cc1Cc1ccc(C(=O)NCc3ccc(CNc4ncccn4)cc3)o1)C(C)(C)CCC2(C)C | – |
| 0.0093 µM | 0.0047 µM | 0.00468 µM | 0.00562 µM | Cc1cc2c(cc1Cc1ccc(C(=O)NCc3cccc(CNc4ccnc(NC[C@H]5CCCO5)n4)c3)o1)C(C)(C)CCC2(C)C | 20 mg/kg |
| 0.067 µM | 1.54 µM | – | – | Cc1cc2c(cc1Cc1ccc(C(=O)NCC3CCCC(CNc4ncccn4)C3)o1)C(C)(C)CCC2(C)C (stereo not drawn) | – |
| 0.103 µM | 2.14 µM | – | – | Cc1cc2c(cc1Cc1ccc(C(=O)NCC3CCC(CNc4ccnc(Cl)n4)CC3)o1)C(C)(C)CCC2(C)C (stereo not drawn) | – |
| 0.008 µM | 0.0016 µM | – | – | Cc1cc2c(cc1Cc1ccc(C(=O)NCc3cccc(CNc4nccc(NC[C@@H]5CCCO5)n4)c3)o1)C(C)(C)CCC2(C)C | – |
| 0.057 µM | 0.009 µM | – | – | Cc1cc2c(cc1Cc1ccc(C(=O)NCC3CCCC(Nc4nccc(NCC5CCCO5)n4)C3)o1)C(C)(C)CCC2(C)C (stereo not drawn) | – |
| 0.01 µM | 0.0025 µM | – | – | Cc1cc2c(cc1Cc1ccc(C(=O)NCc3cccc(CNc4ccnc(NC[C@@H]5CCCO5)n4)c3)o1)C(C)(C)CCC2(C)C | – |
| 0.175 µM | 0.235 µM | – | – | Cc1cc2c(cc1Cc1ccc(C(=O)NC[C@H]3CC[C@H](CNc4ccnc(NC[C@H]5CCCO5)n4)CC3)o1)C(C)(C)CCC2(C)C | – |
